Ends that are not written are not given here.

One assay deals with homologous piliated Escherichia coli challenge strains (renal and/or bladder colonization). Description: Intravesicular BALB/c experimental model of pyelonephritis and cystitis, pilin A synthetic peptide conjugate vaccines. Format: in vivo. Particulars: BALB/c mice, thyroglobulin and BSA conjugates ~200 ug i.m. day 0 and 14 in incomplete Freund's adjuvant; bladder inoculation 10^8 CFU homologous piliated strain; renal/bladder colonization at 48 hours; protection = >90% of cohort no growth and none >500 CFU per 0.1 gram. On the procedure:
The intravesicular BALB/c experimental model of pyelonephritis and cystitis, as originally described by O'Hanley, was employed to evaluate the protective capacity of structural pilin synthetic peptide conjugate vaccines to prevent subsequent renal and/or bladder colonization by homologous piliated strains at 48 hours after bacterial bladder inoculation. Cohorts of 20 mice per group were vaccinated via intramuscular administration on two occasions with the experimental thyroglobulin and bovine serum albumin conjugate pilin A vaccines (i.e., day 0 and day 14). Each intramuscular dose of experimental vaccine consisted of ^˜200 ug in 100 ul saline emulsified in 100 ul incomplete Freund's adjuvant. Control vaccines consisted of thyroglobulin and bovine serum albumin emulsified in saline and incomplete Freund's adjuvant. These control vaccines were administered in similar fashion and schedule as the experimental vaccines. Challenge for pilin A vaccinated mice entailed bladder inoculation of 10^8 CFU of an Escherichia coli strain that expressed homologous pili. In contrast, the cohort size for control animals was 5 per challenge strain. The table below summarizes the challenge strategy.
Protection against subsequent renal colonization and bladder colonization by the challenge strain was defined by >90% of the experimental animals in a cohort (i.e., 18 of 20 vaccinated experimental mice) having no bacterial growth from aliquots of homogenized whole right kidney and aliquots of homogenized whole bladders and none of the experimental animals having heavy bacterial growth from the challenge strain in renal or bladder specimens (viz., the absence of ++++ colonization density or >500 CFU of the challenge strain per 0.1 gram of renal or bladder tissue) compared to heavy growth of the challenge strain in both renal and bladder specimens (++++ colonization density or >500 CFU per 0.1 gm of renal or bladder tissue) by the challenge strain in >80% of control animals (i.e. >4 of 5 control mice).
“IPEGQGKVT (also: conjugated to thyroglobulin or BSA) [F12 pilin A synthetic peptide conjugated to thyroglobulin or bovine serum albumin]”: the “Homologous Protection” value is “Yes”.
Still for that read-out and setting: the entry for “IPQGQGKVTFNGTV (also: conjugated to carrier protein) [F11 pilin A synthetic peptide conjugate vaccine]” is “Yes”; for “NFKKAAGGGGAKT (also: conjugated to thyroglobulin or BSA) [F72 pilin A synthetic peptide conjugated to thyroglobulin or bovine serum albumin]” it is “Yes”.
Turning to “NFKKAATPGGAAKT (also: conjugated to thyroglobulin or BSA) [F9 pilin A synthetic peptide conjugated to thyroglobulin or bovine serum albumin]”, the “Homologous Protection” value was “Yes”.
In the case of “NFKQLQGGAAKKG (also: conjugated to thyroglobulin or BSA) [F71 pilin A synthetic peptide conjugated to thyroglobulin or bovine serum albumin]”, the “Homologous Protection” value was “Yes”.
Turning to “NGGTVHFKGEVVN (also: conjugated to thyroglobulin or BSA) [F1C structural pilin synthetic peptide conjugated to thyroglobulin or bovine serum albumin]”, the “Homologous Protection” value is reported as “Yes”.
Same read-out and setting: with “PQGQGEVA (also: conjugated to thyroglobulin or BSA) [F71 pilin A synthetic peptide conjugated to thyroglobulin or bovine serum albumin]” the entry was “Yes”; with “PQGQGEVT (also: conjugated to thyroglobulin or BSA) [F71 pilin A synthetic peptide conjugated to thyroglobulin or bovine serum albumin]”, “Yes”.
Same read-out and setting: with “PQGQGKVT (also: conjugated to carrier protein) [F72 and F13 pilin A synthetic peptide conjugate vaccine]” the entry was “Yes”; with “TTVNGGTVH (also: conjugated to carrier protein) [F9 pilin A synthetic peptide conjugate vaccine]”, “Yes”; with “TTVTVNGGTVHF (also: conjugated to thyroglobulin or BSA) [F1 structural pilin synthetic peptide conjugated to thyroglobulin or bovine serum albumin]”, “Yes”.

The subject of another assay is experimental pyelonephritis. The assay is described as follows: BALB/c murine model of experimental pyelonephritis, F13 peptide conjugate vaccines. Particulars: BALB/c mice, serial parenteral administration of vaccine, intravesicular challenge. The format is in vivo.
In the case of “AKFGGMGAKKG (also: conjugated to carrier protein) [F13 structural pilin peptide conjugate vaccine]”, the “protection in experimental pyelonephritis” value is “protective”.
Still for that read-out and setting: the entry for “PQGQGKVT (also: conjugated to carrier protein) [F72 and F13 pilin A synthetic peptide conjugate vaccine]” is “protective”.

The values are drawn from US20020142008A1, “Immunogenic pili presenting foreign peptides, their production and use” (priority 2000, published 2002).
